# Assays:
# Assay type in all cases: in vivo
# [1] = tested on: japanese ribbon wapato (Sagittaria pygmaea: SAGPY); assay: Test Example 3: water application herbicidal activity, paddy (growth controlling degree); details: rate 63 g a.i./ha; water application under submerged condition, paddy pot; tubers of japanese ribbon wapato planted
# Text: (§1) Paddy field soil was put into a {fraction (1/1,000,000)} ha pot, and seeds of barnyardgrass (Echinochloa oryzicola: ECHOR) and japanese bulrush (Scirpus juncoides: SCPJO) were sown and slightly covered with soil. Then the pot was left to stand still in a greenhouse in a state where the depth of flooding water was from 0.5 to 1 cm, and one day later, tubers of japanese ribbon wapato (Sagittaria pygmaea: SAGPY) were planted. Thereafter, the depth of flooding water was maintained at a level of from 3 to 4 cm, and when barnyardgrass and japanese bulrush reached a 0.5 leaf stage, an aqueous diluted solution of a wettable powder or emulsifiable concentrate having the compound of the present invention formulated in accordance with a usual formulation method, was uniformly applied under submerged condition by a pipette so that the dose of the active ingredient would be at a predetermined level. On the other hand, paddy filed soil was put into a {fraction (1/1,000,000)} ha pot and puddled and leveled, and the depth of flooding water was from 3 to 4 cm. One day later, rice (Oryza sativa L.: ORYSA) of 2 leaf stage was transplanted in a depth of 3 cm. On the 4th day after the transplantation, the compound of the present invention was applied in the same manner as described above. On the 14th day after the application of the herbicide, the growth of barnyardgrass, japanese burlush and japanese ribbon wapato was visually observed and on the 21st day after the application of the herbicide, the growth of rice was visually observed, and the herbicidal effects were evaluated by growth controlling degrees (%) ranging from 0 (equivalent to the untreated control) to 100 (complete kill), whereby the results shown in Table 13, were obtained. Compound Nos. in Table 13 correspond to Compound Nos. in Table 1 to 7 given hereinbefore.
# [2] = tested on: rice (Oryza sativa L.: ORYSA); assay: as above; details: rate 63 g a.i./ha, paddy pot, rice of 2 leaf stage transplanted, treated on the 4th day after transplantation; for pest or weed control at 63 g/ha: Oryza sativa, 504 h
# Text: as §1
# [3] = tested on: barnyardgrass (Echinochloa oryzicola: ECHOR); assay: as above; details: rate 63 g a.i./ha, water application under submerged condition, paddy pot, barnyardgrass at 0.5 leaf stage; for pest or weed control at 63 g/ha: Echinochloa oryzicola, 336 h
# Text: as §1
# [4] = tested on: japanese bulrush (Scirpus juncoides: SCPJO); assay: as above; details: rate 63 g a.i./ha, water application under submerged condition, paddy pot, japanese bulrush at 0.5 leaf stage; for pest or weed control at 63 g/ha: Schoenoplectiella juncoides, 336 h
# Text: as §1
# [5] = tested on: barnyardgrass (Echinochloa crus-galli L.): ECHCC; assay: Test Example 1: pre-emergence herbicidal activity (growth controlling degree); details: 20th to 21st day after application
# Text: (§2) Upland field soil was put into a 1/170,000 ha pot, and seeds of various plants [1. barnyardgrass (Echinochloa crus-galli L.): ECHCC, 2. crabgrass (Digitaria sanguinalis L.): DIGSA, 3. green foxtail (Setaria viridis L.): SETVI, 4. redroot pigweed (Amaranthus retroflexus L.): AMARE, 5. prickly sida (Sida spinosa L.): SIDSP, 6. velvetleaf (Abutilon theophrasti): ABUTH, 7. common cocklebur (Xanthium strumarium L.): XANST, 8. rice (Oryza sativa L.): ORYSA, 9. wheat (Triticum aestivum L.): TRZAX, 10. corn (Zea mays L.): ZEAMX, 11. soybean (Glycine max Merr.): GLXMA] were sown. Then, one day after the sowing, a wettable powder or emulsifiable concentrate having the compound of the present invention formulated in accordance with a usual formulation method, was weighed so that the active ingredient would be a predetermined amount, and diluted with water in an amount of 500 L/ha. The herbicide adjusted was applied by a small size sprayer for pre-emergence treatment. On the 20th to 21st day after the application of the herbicide, the growth of the respective plants was visually observed, and the herbicidal effects were evaluated by growth controlling degrees (%) ranging from 0 (equivalent to the untreated control) to 100 (complete kill), whereby the results shown in Table 11, were obtained. Compound Nos. in Table 11 correspond to Compound Nos. in Table 1 to 7 given hereinbefore.
# [6] = tested on: common cocklebur (Xanthium strumarium L.): XANST; assay: as above; details: 20th to 21st day after application
# Text: as §2
# [7] = tested on: crabgrass (Digitaria sanguinalis L.): DIGSA; assay: as above; details: 20th to 21st day after application
# Text: as §2
# [8] = tested on: corn (Zea mays L.): ZEAMX; assay: as above; details: 20th to 21st day after application
# Text: as §2
# [9] = tested on: green foxtail (Setaria viridis L.): SETVI; assay: as above; details: 20th to 21st day after application
# Text: as §2
# [10] = tested on: soybean (Glycine max Merr.): GLXMA; assay: as above; details: 20th to 21st day after application
# Text: as §2
# [11] = tested on: redroot pigweed (Amaranthus retroflexus L.): AMARE; assay: as above; details: 20th to 21st day after application
# Text: as §2
# [12] = tested on: rice (Oryza sativa L.): ORYSA; assay: as above; details: 20th to 21st day after application
# Text: as §2
# [13] = tested on: velvetleaf (Abutilon theophrasti): ABUTH; assay: as above; details: 20th to 21st day after application
# Text: as §2
# [14] = tested on: prickly sida (Sida spinosa L.): SIDSP; assay: as above; details: 20th to 21st day after application
# Text: as §2
Compound,Water Application Herbicidal Activity SAGPY (growth controlling degree) [1],"growth controlling degree, ECHCG ([5]; 250 g a.i./ha)","growth controlling degree, XANST ([6]; 250 g a.i./ha)","growth controlling degree, DIGSP ([7]; 250 g a.i./ha)","growth controlling degree, ZEAMX ([8]; 250 g a.i./ha)","growth controlling degree, SETVI ([9]; 250 g a.i./ha)","growth controlling degree, GLXMA ([10]; 250 g a.i./ha)","growth controlling degree, AMARE ([11]; 250 g a.i./ha)","growth controlling degree, ORYSA ([12]; 250 g a.i./ha)","growth controlling degree, ABUTH ([13]; 250 g a.i./ha)","growth controlling degree, SIDSP ([14]; 250 g a.i./ha)",pest or weed control at 63 g/ha [2],pest or weed control at 63 g/ha [3],pest or weed control at 63 g/ha [4],"growth controlling degree, ECHCG ([5]; 125 g a.i./ha)","growth controlling degree, XANST ([6]; 125 g a.i./ha)","growth controlling degree, DIGSP ([7]; 125 g a.i./ha)","growth controlling degree, ZEAMX ([8]; 125 g a.i./ha)","growth controlling degree, SETVI ([9]; 125 g a.i./ha)","growth controlling degree, GLXMA ([10]; 125 g a.i./ha)",also measured
CC1CCc2c(c(Cl)cc(F)c2-c2nn3c(c2Cl)CCCC3)O1 (centres unmarked) [Compound 1-85],100%,60%,0%,60%,10%,80%,0%,95%,10%,30%,20%,,,,,,,,,,Water Application Herbicidal Activity ORYSA (growth controlling degree) [2]: 10%; Water Application Herbicidal Activity ECHOR (growth controlling degree) [3]: 100%; Water Application Herbicidal Activity SCPJO (growth controlling degree) [4]: 98%
"Fc1cc(Cl)c2c(c1-c1nn3c(c1Cl)CCCC3)CCCO2 [Compound 1-79, 3-chloro-2-(8-chloro-6-fluoro-3,4-dihydro-2H-1-benzopyran-5-yl)-4,5,6,7-tetrahydro-pyrazolo[1,5-a]pyridine]",100%,100%,,,10%,,30%,100%,30%,60%,80%,40%,100%,100%,,,,,,,
Cn1nc(-c2c(F)cc(Cl)c3c2CCC(c2ccccc2)O3)c(Cl)c1OC(F)F (centres unmarked) [Compound 1-42],100%,100%,0%,100%,10%,100%,10%,100%,40%,50%,80%,35%,100%,98%,,,,,,,
CC1CCc2c(c(Cl)cc(F)c2-c2nn(C)c(C(F)(F)F)c2Cl)O1 (centres unmarked) [Compound 1-8],40%,50%,10%,98%,10%,95%,10%,100%,20%,100%,98%,10%,60%,60%,,,,,,,
CCCCCC1CCc2c(c(Cl)cc(F)c2-c2nn(C)c(OC(F)F)c2Cl)O1 (centres unmarked) [Compound 1-101],100%,,,,,,,,,,,,,,80%,30%,100%,40%,100%,10%,"Water Application Herbicidal Activity ORYSA (growth controlling degree) [2]: 35%; Water Application Herbicidal Activity ECHOR (growth controlling degree) [3]: 100%; Water Application Herbicidal Activity SCPJO (growth controlling degree) [4]: 50%; growth controlling degree, AMARE ([11]; 125 g a.i./ha): 100%; growth controlling degree, ORYSA ([12]; 125 g a.i./ha): 30%; growth controlling degree, ABUTH ([13]; 125 g a.i./ha): 60%; growth controlling degree, SIDSP ([14]; 125 g a.i./ha): 80%"
"Cn1nc(-c2c(F)cc(Cl)c3c2CCCO3)c(Cl)c1OC(F)F [Compound 1-33, 4-chloro-3-(8-chloro-6-fluoro-3,4-dihydro-2H-1-benzopyran-5-yl)-5-(difluoromethoxy)-1-methyl-1H-pyrazole]",100%,,,,,,,,,,,80%,100%,100%,100%,70%,100%,100%,100%,40%,"growth controlling degree, AMARE ([11]; 125 g a.i./ha): 100%; growth controlling degree, ORYSA ([12]; 125 g a.i./ha): 70%; growth controlling degree, ABUTH ([13]; 125 g a.i./ha): 100%; growth controlling degree, SIDSP ([14]; 125 g a.i./ha): 100%"
"Fc1cc(Cl)c2c(c1-c1ncc(C(F)(F)F)cc1Cl)CCCO2 [Compound 7-2, 3-chloro-2-(8-chloro-6-fluoro-3,4-dihydro-2H-1-benzopyran-5-yl)-5-(trifluoromethyl)-pyridine]",,100%,50%,100%,60%,100%,50%,100%,50%,100%,100%,0%,100%,98%,,,,,,,
"Cn1nc(-c2c(F)cc(Cl)c3c2CCCO3)c(Cl)c1C(F)(F)F [Compound 1-2, 4-chloro-3-(8-chloro-6-fluoro-3,4-dihydro-2H-1-benzopyran-5-yl)-1-methyl-5-(trifluoromethyl)-1H-pyrazole]",0%,,,,,,,,,,,20%,40%,30%,100%,100%,100%,10%,100%,10%,"growth controlling degree, AMARE ([11]; 125 g a.i./ha): 100%; growth controlling degree, ORYSA ([12]; 125 g a.i./ha): 20%; growth controlling degree, ABUTH ([13]; 125 g a.i./ha): 100%; growth controlling degree, SIDSP ([14]; 125 g a.i./ha): 100%"
CC1CCc2c(c(Cl)cc(F)c2-c2nn(C)c(OC(F)F)c2Cl)O1 (centres unmarked) [Compound 1-39],100%,100%,100%,100%,70%,100%,30%,100%,50%,100%,100%,60%,100%,100%,,,,,,,
